# Active and inactive are the calls of the source.
# Key:
# BJ [1] = test: cytotoxicity toward BJ-TERT fibroblasts, dose response, cell-based, RAS-independent, luminescence (AID 1933); assay type: functional; conditions: Homo sapiens
# [2] = inhibitors of SNCA 5'UTR-driven reporter translation, confirmation, H4 neuroglioma cells, luminescence (AID 1988); assay type: functional, cell-based
# [3] = Luminescence Cell-Based Dose Response HTS to Identify Inhibitors of 5'UTR Stem-Loop Driven Prion Protein mRNA Translation in H4 Neuroglioblastoma Cells. [Related pubchem assays: 1827 (Project Summary), 1813 (Primary HTS)]; assay type: functional
# BJ [4] = test: cytotoxicity toward BJ-TERT-LT-ST fibroblasts, dose response, cell-based, RAS-independent, luminescence (AID 1935); assay type: functional; conditions: Homo sapiens;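 further: BJ fibroblasts immortalized with TERT plus LT and ST oncogenes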
# [5] = cytotoxicity toward DRD oncogenic fibroblasts, dose response, cell-based, non-viral oncogenic, luminescence (AID 1934); assay type: functional; conditions: Homo sapiens
# [6] = luciferase reporter signal reduction – luminescence, H4-C neuroglioblastoma cells, dose response (AID 2458); assay type: functional, cell-based;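 further: H4 neuroglioblastoma cells stably carrying a luciferase reporter gene fusion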
# BJ [7] = test: cells; assay type: functional, cell-based; conditions: Homo sapiens
# [8] = inhibitors of SNCA 5'UTR-driven translation, confirmation, luminescence, H4 neuroglioblastoma cells, dose confirmation (AID 2454); assay type: functional, cell-based;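 further: H4 neuroglioblastoma cells carrying an alpha-synuclein 5'UTR luciferase reporter; potency for inhibition of the luciferase signal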
# [9] = molecular target: T1, Microphthalmia-associated transcription factor (Homo sapiens, UniProt O75030); test: TRPM1 promoter luciferase signal decrease, dose response, MITF inhibitor project, cell-based, SK-MEL-5, cherry-picked, set 3 (AID 493073); assay type: functional
# T1 sequence (O75030 whole entry): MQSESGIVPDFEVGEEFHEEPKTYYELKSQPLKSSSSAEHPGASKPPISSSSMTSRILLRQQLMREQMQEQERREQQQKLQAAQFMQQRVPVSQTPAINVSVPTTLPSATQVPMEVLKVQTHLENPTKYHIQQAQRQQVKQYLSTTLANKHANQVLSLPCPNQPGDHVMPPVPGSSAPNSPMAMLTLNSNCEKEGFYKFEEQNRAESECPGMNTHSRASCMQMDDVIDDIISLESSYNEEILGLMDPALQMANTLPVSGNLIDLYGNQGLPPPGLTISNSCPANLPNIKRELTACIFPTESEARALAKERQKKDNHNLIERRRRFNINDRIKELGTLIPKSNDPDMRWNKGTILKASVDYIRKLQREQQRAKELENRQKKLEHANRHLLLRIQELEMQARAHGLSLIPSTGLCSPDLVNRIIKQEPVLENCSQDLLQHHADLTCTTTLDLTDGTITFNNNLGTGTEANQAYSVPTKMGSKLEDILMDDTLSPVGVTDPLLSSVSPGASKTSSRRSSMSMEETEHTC
# BJ [10] = test: cytotoxicity toward Ras-transformed BJeLR fibroblasts, dose response, cell-based, alamar blue fluorescence, cherrypicked samples (AID 2631); assay type: functional; conditions: Homo sapiens;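 further: confirmatory dose-response assay in RAS-dependent BJ fibroblasts engineered with TERT, LT and ST, with cytotoxicity read by fluorescence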
# cells = assay type: functional, cell-based
# [11] = insulin promoter down-regulators in MIN6 cells, imaging, high-content screening, mouse beta cells (AID 1628); assay type: functional
# [12] = cytotoxicity in MIN6 insulinoma cells, dose response, cytotoxicity control, cell-based, mouse insulinoma (AID 2122); assay type: functional;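 further: confirmatory high-throughput counterscreen run to flag cytotoxic compounds; mouse MIN-6 beta cells carrying an insulin promoter eGFP reporter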
# HeLa = test: HeLa cell cytotoxicity, dose response, cytotoxicity control for MITF activator project, CellTiter-Glo luminescence, cherry-pick samples (AID 540259); assay type: functional, cell-based; conditions: Homo sapiens
# [13] = microbe, parasite or virus in culture; assay type: functional; conditions: Mycobacterium tuberculosis
# [14] = Luminescence Cell-Based Dose Retest to Confirm Inhibitors of Cancer Stem Cells. [Related pubchem assays (depositor defined):AID2717, AID2721]; assay type: functional; conditions: Homo sapiens
# [15] = cytotoxicity in HMLE control line with eGFP shRNA, dose response, counter-screen for HMLE_sh_ECad selective toxicity project, cell-based, HMLE_sh_eGFP, luminescence (AID 463074); assay type: functional, Homo sapiens;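 further: HMLE human mammary epithelial cells expressing control shRNA against eGFP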
# INS1 = test: beta cell apoptosis inhibitors, cytokine rescue, dose response, luminescence, retest (AID 449756); assay type: functional, cell-based; conditions: Rattus norvegicus;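 further: cell death triggered by IL-1 beta plus TNF-alpha plus IFN-gamma mixture; protective hits raise ATP signal compared with cytokine alone wells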
# Paired box protein Pax-8 = Paired box protein Pax-8 (Homo sapiens, UniProt Q06710); test: inhibitors of PAX8-driven TPO luciferase reporter, dose response, RMG-I cells, cherry-pick (AID 687027); assay type: functional, cell-based;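 further: luciferase reporter driven by Pax8 target thyroperoxidase promoter measured by SteadyGlo luminescence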
# Chain of Paired box protein Pax-8 (Q06710 whole entry): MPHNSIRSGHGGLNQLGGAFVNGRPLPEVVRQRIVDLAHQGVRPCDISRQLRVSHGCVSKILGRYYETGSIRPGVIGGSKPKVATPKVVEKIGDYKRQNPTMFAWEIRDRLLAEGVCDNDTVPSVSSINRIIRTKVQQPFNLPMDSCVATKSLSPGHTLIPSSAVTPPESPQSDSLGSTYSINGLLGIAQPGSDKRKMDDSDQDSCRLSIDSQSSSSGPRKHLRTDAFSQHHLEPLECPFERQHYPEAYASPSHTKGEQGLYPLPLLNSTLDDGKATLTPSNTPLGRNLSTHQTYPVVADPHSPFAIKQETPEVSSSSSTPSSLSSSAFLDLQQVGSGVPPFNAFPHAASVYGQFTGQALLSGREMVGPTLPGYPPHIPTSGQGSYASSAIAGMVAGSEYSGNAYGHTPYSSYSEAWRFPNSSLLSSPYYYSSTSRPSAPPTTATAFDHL
# [16] = HepG2 cell cytotoxicity, dose response, cytotoxicity control for Shn3 inhibitor project, CellTiter-Glo, cherry-picked (AID 624134); assay type: functional, cell-based
# [17] = Shn3 3'UTR reporter inhibitors, dose response, cell-based, Clone20 osteoblasts, firefly luciferase, cherry-picked (AID 624132); assay type: functional;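 further: firefly luciferase luminescence from reporter carrying the Shn3 3'UTR in osteoblasts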
# [18] = control 3'UTR Renilla luciferase suppression, dose response, counter-screen for Shn3 inhibitor project, cell-based, Clone20-Shn3RL, cherry-picked (AID 624133); assay type: functional
# Estrogen receptor = molecular target: T2, Estrogen receptor (Homo sapiens, UniProt P03372);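 further: potency for inhibiting coactivator peptide recruitment to the receptor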
# T2 sequence (P03372 whole entry): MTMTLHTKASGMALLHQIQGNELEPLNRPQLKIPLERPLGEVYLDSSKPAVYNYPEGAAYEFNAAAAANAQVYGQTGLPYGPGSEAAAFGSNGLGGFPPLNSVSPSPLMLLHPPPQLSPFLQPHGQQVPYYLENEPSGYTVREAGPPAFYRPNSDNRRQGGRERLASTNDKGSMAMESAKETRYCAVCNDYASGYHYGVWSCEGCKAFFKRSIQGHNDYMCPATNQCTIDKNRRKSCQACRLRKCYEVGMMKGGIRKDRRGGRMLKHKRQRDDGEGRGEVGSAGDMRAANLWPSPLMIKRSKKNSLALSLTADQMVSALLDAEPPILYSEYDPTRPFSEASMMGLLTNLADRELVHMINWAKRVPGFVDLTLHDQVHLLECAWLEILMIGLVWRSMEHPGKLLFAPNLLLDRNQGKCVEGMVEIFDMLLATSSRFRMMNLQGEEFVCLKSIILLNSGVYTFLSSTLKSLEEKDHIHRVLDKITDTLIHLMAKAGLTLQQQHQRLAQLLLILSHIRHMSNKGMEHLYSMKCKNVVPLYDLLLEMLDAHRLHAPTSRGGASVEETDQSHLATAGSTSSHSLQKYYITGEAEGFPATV
# Vero = Vero cell cytotoxicity, cytotoxicity control for flavivirus capping enzyme inhibitors (AID 588742); assay type: functional; conditions: Chlorocebus sabaeus
# Estrogen receptor beta = Estrogen receptor beta (Homo sapiens, UniProt Q92731);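 further: recombinant ER-beta bound to coactivator SRC1 peptide in presence of estradiol agonist; inhibitors block coactivator peptide binding and lower the FRET signal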
# Chain of Estrogen receptor beta (Q92731 whole entry): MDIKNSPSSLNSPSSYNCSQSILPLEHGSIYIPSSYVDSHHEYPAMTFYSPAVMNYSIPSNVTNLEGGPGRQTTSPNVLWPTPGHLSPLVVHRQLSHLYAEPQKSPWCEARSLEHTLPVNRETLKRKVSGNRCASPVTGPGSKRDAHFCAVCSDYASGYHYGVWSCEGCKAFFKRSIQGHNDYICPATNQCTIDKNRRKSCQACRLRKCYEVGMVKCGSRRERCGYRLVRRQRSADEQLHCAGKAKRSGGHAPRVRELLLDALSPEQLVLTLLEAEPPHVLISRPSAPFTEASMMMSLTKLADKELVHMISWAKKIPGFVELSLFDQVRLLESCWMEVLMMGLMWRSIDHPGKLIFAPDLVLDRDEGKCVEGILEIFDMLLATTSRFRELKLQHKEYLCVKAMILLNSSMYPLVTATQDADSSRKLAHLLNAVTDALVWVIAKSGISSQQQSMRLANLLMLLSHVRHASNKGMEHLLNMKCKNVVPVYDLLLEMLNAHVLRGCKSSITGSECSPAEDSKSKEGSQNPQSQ
# [19] = molecular target: Luciferin 4-monooxygenase (Photinus pyralis, UniProt P08659); test: Counter Screen for Luciferase-based Assay Positives. [Related pubchem assays: 620, 618, 411 ]
# Chain of Luciferin 4-monooxygenase (P08659 whole entry): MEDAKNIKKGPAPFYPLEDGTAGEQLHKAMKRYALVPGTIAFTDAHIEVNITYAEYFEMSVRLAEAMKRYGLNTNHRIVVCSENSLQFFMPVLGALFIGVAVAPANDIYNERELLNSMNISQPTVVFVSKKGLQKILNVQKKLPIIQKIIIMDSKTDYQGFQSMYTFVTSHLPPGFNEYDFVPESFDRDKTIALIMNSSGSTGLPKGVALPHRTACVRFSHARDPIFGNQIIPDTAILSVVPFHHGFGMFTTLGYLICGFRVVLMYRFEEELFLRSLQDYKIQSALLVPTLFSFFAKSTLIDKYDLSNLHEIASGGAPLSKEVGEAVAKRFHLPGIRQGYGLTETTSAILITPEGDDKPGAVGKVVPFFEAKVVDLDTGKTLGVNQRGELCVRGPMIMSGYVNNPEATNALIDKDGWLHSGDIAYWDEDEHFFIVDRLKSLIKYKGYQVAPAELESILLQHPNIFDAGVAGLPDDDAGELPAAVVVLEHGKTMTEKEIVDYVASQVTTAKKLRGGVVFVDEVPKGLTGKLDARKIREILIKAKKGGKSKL
# [20] = molecular target: T3, Ubiquitin-conjugating enzyme E2 N (Homo sapiens, UniProt P61088); assay type: functional
# T3 sequence (P61088 whole entry): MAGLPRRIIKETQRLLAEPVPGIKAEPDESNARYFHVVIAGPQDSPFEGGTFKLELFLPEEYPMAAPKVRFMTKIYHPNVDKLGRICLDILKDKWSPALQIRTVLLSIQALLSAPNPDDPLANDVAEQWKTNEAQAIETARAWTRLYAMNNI
# Bcl-2-related protein A1 = molecular target: T4, Bcl-2-related protein A1 (Mus musculus, UniProt Q07440); assay type: functional;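 further: confirmatory dose–response counterscreen on Bfl-1, used to check hits from a UBC13 polyubiquitin inhibitor campaign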
# T4 sequence (Q07440 whole entry): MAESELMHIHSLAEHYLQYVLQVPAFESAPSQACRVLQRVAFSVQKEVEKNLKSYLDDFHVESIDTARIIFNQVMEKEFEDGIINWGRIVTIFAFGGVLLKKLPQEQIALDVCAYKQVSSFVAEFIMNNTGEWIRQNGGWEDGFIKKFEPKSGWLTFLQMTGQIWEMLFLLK
# [21] = inhibitors of firefly luciferase expression or activity, dose response, H4 neuroglioma cells, luminescence (AID 1990); assay type: functional, cell-based
# [22] = molecular target: T3, Ubiquitin-conjugating enzyme E2 N; assay type: functional; remark: listed apart in the source
# HT-1080 = test: cytotoxicity in HT1080 fibrosarcoma cells, cell-based, fluorescence readout (AID 620); assay type: functional; conditions: Homo sapiens
# [23] = molecular target: T5, Rac GTPase-activating protein 1 (Homo sapiens, UniProt Q9H0H5); test: MgcRacGAP GTPase-activating activity inhibitors, confirmation, biochemical, ADP Hunter fluorescence, primary and confirmatory (AID 624330); assay type: functional
# T5 sequence (Q9H0H5 whole entry): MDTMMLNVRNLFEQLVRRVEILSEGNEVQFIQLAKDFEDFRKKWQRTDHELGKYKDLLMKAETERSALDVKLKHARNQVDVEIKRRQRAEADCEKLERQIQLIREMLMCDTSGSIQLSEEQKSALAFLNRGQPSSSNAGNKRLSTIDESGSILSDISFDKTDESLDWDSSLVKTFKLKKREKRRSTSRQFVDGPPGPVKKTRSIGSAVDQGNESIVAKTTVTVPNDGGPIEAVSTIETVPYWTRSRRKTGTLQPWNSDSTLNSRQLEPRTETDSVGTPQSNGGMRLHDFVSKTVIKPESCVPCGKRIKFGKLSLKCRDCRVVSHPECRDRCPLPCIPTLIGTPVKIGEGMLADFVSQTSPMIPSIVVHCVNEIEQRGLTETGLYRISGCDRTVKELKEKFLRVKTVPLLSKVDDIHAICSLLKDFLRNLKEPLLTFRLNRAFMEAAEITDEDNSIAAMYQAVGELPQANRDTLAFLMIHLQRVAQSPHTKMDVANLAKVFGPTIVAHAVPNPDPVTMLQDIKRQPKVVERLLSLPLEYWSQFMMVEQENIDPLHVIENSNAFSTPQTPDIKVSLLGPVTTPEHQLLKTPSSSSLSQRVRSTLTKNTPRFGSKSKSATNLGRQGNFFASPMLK
# Cytochrome P450 3A4 = Cytochrome P450 3A4 (Homo sapiens, UniProt P08684);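 further: CYP3A4 tested as one member of a cytochrome P450 panel screen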
# Chain of Cytochrome P450 3A4 (P08684 whole entry): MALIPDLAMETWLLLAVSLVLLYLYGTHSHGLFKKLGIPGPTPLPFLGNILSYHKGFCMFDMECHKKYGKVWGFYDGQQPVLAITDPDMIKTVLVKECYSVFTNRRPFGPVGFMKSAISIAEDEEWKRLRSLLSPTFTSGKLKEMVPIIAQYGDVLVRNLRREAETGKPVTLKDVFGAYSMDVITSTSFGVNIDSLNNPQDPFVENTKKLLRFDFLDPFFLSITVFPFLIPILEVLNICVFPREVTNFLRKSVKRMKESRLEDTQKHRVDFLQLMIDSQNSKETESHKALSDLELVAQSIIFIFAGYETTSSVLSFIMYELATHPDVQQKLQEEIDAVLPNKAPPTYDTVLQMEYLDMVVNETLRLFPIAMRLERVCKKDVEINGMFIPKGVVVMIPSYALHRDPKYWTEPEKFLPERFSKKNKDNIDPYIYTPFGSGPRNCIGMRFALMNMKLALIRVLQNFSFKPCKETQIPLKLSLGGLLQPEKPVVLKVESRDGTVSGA
smiles,measurement,setting,value
COc1cc2c(c(OC)c1OC)-c1ccc(N(C)CC(OC)OC)c(=O)cc1[C@@H](NC(C)=O)CC2,EC50,BJ [1],2.59 µM (inconclusive)
same,EC50,[2],< 0.1 µM (active)
same,EC50,[3],8.84 µM (active)
same,EC50,BJ [4],20 µM (inconclusive)
same,EC50,[5],2.35 µM (active)
same,EC50,[6],> 12 µM (not active)
same,EC50,BJ [7],3.06 µM (active)
same,EC50,[8],1.22 µM (active)
same,AC50,[9],2.04 µM (active)
same,EC50,BJ [10],0.117 µM (active)
same,EC50,cells,> 12 µM (not active)
COc1ccc(-c2c3c(nc4sc5c(O)nc(C)nc5c24)CCC3)cc1,IC50,[11],0.847 µM (active)
same,IC50,[12],> 16 µM (inactive)
Nc1ccc(O)c2c(=O)cc(-c3ccccc3Cl)oc12,AC50,HeLa,79.6 µM (active)
CCCCn1cnc2c(c(-c3ccccc3)c(-c3ccccc3)n2Cc2ccco2)c1=N,EC50,BJ [1],7.71 µM (active)
same,CC50,[13],> 40 µM (active)
same,AC50,[14],49.8 µM (active)
same,EC50,BJ [4],11.1 µM (inconclusive)
same,EC50,[5],9.06 µM (active)
same,AC50,[15],50.9 µM (active)
same,EC50,BJ [7],36.1 µM (active)
same,AC50,INS1,> 260 µM (inactive)
same,EC50,BJ [10],76.5 µM (active)
same,AC50,Paired box protein Pax-8,9.7 µM (active)
CC(CCCC(C)(C)O)NC(=O)c1cc(COc2ccc3ncccc3c2)on1 (centres undefined),IC50,[11],1.96 µM (active)
same,AC50,[16],3.65 µM (active)
same,AC50,[17],1.75 µM (active)
same,IC50,[12],1.48 µM (active)
same,AC50,INS1,4.37 µM (active)
same,AC50,[18],1.06 µM (active)
O=C(Nc1ccc(N2CCCC2)cc1)C(Cl)c1ccccc1 (centres undefined),IC50,Estrogen receptor,> 50 µM (not active)
same,CC50,Vero,> 40 µM (active)
same,IC50,Estrogen receptor beta,> 50 µM (not active)
COc1ccc(C(=O)Nn2c(SCC(=O)NCc3ccccc3)nc3ccccc3c2=O)cc1,EC50,[19],2.51 µM (active)
same,IC50,[20],> 20 µM (inactive)
same,IC50,Bcl-2-related protein A1,> 20 µM (inactive)
same,EC50,[2],0.403 µM (inconclusive)
same,EC50,[3],9.71 µM (active)
same,EC50,[21],9.49 µM (active)
same,IC50,[22],19.4 µM (active)
same,EC50,HT-1080,> 50 µM (not active)
C#CCOCCOCCOCCNc1nc(N2CCN(C(=O)[C@H](CCCCN)n3cc([C@@H](N)CC(C)C)nn3)CC2)nc(N2CCN(C(=O)[C@H](CCCCN)n3cc([C@@H](N)CC(C)C)nn3)CC2)n1,IC50,[20],14 µM (active)
same,IC50,Bcl-2-related protein A1,> 20 µM (inactive)
same,IC50,[22],14.4 µM (active)
same,IC50,[23],190 µM (active)
Cc1s/c(=N\C(=O)c2ccco2)n(C)c1-c1ccccc1,AC50,Cytochrome P450 3A4,inconclusive
CCN(CC)S(=O)(=O)c1cccc(C(=O)N/N=C(\C)c2cccs2)c1,AC50,HeLa,50.9 µM (active)
O=C(Cc1cccc2ccccc12)N/N=C/c1ccc(Sc2nc3ccccc3s2)o1,AC50,Cytochrome P450 3A4,inconclusive
CC1CCN(c2ccc(/C=N/n3nnnc3N)cc2[N+](=O)[O-])CC1,AC50,Cytochrome P450 3A4,inconclusive
